Results reported in BindingDB's records for doi:10.1016/j.ejmech.2017.02.004 (China Pharmaceutical University, 2017).

Key:
[1] = Substrate activity at CPR in human L02 cells assessed as CPR-mediated one-electron reduction of compound by measuring cell growth inhibition treated for 24 hrs measured after 72 hrs by MTT assay
[2] = Substrate activity at NQO1 in human A549 cells assessed as NQO1-mediated two-electron reduction of compound by measuring cell growth inhibition treated for 24 hrs measured after 72 hrs by MTT assay
[3] = Substrate activity at NQO1 in human H522 cells assessed as NQO1-mediated two-electron reduction of compound by measuring cell growth inhibition treated for 24 hrs measured after 72 hrs by MTT assay
[4] = Substrate activity at NQO1 in human MCF7 cells assessed as NQO1-mediated two-electron reduction of compound by measuring cell growth inhibition treated for 24 hrs measured after 72 hrs by MTT assay
[5] = Substrate activity at NQO1 in human H1299 cells assessed as NQO1-mediated two-electron reduction of compound by measuring cell growth inhibition treated for 24 hrs measured after 72 hrs by MTT assay
[6] = Substrate activity at NQO1 in human H1650 cells assessed as NQO1-mediated two-electron reduction of compound by measuring cell growth inhibition treated for 24 hrs measured after 72 hrs by MTT assay
[7] = Substrate activity at NQO1 in human HepG2 cells assessed as NQO1-mediated two-electron reduction of compound by measuring cell growth inhibition treated for 24 hrs measured after 72 hrs by MTT assay
[8] = Substrate activity at NQO1 in human HCT116 cells assessed as NQO1-mediated two-electron reduction of compound by measuring cell growth inhibition treated for 24 hrs measured after 72 hrs by MTT assay

Structure (SMILES): Cc1ccc2c(c1)-c1occ(C)c1C(=O)C2=O
- IC50 [1]: 6.3 µM
- IC50 [2]: 4.1 µM

Structure (SMILES): Cc1coc2c1C(=O)C(=O)c1c(C)ccc(C)c1-2
- IC50 [1]: 17 µM
- IC50 [2]: 2.9 µM

Structure (SMILES): Cc1cc2c(cc1C)-c1occ(C)c1C(=O)C2=O
- IC50 [2]: 3.3 µM
- IC50 [3]: 4.8 µM
- IC50 [4]: 2400 nM
- IC50 [5]: 4.9 µM
- IC50 [6]: 9.3 µM
- IC50 [7]: 2500 nM
- IC50 [8]: 4.4 µM

Structure (SMILES): Cc1ccc2c(c1)C(=O)C(=O)c1c(C)coc1-2
- IC50 [1]: 22 µM
- IC50 [2]: 8.5 µM

Structure (SMILES): Cc1cc2c(cc1C)-c1occc1C(=O)C2=O
- IC50 [2]: 3.1 µM

Structure (SMILES): CCc1coc2c1C(=O)C(=O)c1cc(C)ccc1-2
- IC50 [1]: 25 µM
- IC50 [2]: 3.1 µM

Structure (SMILES): COc1ccc2c(c1)C(=O)C(=O)C1=C2OC(C)C1(C)C (centres undefined)
- IC50 [1]: 30 µM

Structure (SMILES): COc1ccc2c(c1)C1=C(C(=O)C2=O)C(C)(C)C(C)O1 (centres undefined)
- IC50 [2]: 5.8 µM

Structure (SMILES): COc1cccc2c1C1=C(C(=O)C2=O)C(C)(C)C(C)O1 (centres undefined)
- IC50 [1]: 19 µM
